The record followed here is PubChem BioAssay (NCI).

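96-well plates; 48 h exposure; 5 concentrations. Endpoints by linear interpolation between flanking doses. Not reached: highest tested concentration assigned. Definition used: TGI = concentration required for complete inhibition of growth.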

Among the test systems are SF-268 CNS; A549 NSCLC; OVCAR-5 ovarian; NCI-H460 lung; U251 CNS; NCI-H23 lung; K-562 leukemia; UACC-257 melanoma; LOX IMVI melanoma; KM12 colon; HCT-116 colon; SF-539 CNS; SW-620 colon; SF-295 CNS; OVCAR-3 ovarian; SK-OV-3 ovarian; SK-MEL-2 melanoma; UACC-62 melanoma; A498 renal; MALME-3M melanoma.
Test in all cases: inhibition of tumour cell growth, NCI panel, 48 h

For the compound `CC(=O)OC(C)C1C2=C(C(=O)CC1(C)O)C(=O)c1c(ccc(-c3ccc4c(c3O)C(=O)C3=C(C4=O)C(C(C)OC(C)=O)C(C)(O)CC3=O)c1O)C2=O` (stereo not drawn), the TGI was determined as 19.4 µM with SF-268 CNS; 18.8 µM in the assay with A549 NSCLC; 11.3 µM in the assay with OVCAR-5 ovarian; 21.7 µM with NCI-H460 lung; 12.9 µM in the assay with U251 CNS; 3.07 µM with NCI-H23 lung. Further, the TGI in the assay with K-562 leukemia was above 100 µM; in the assay with UACC-257 melanoma, 3.48 µM; in the assay on LOX IMVI melanoma it was 3.07 µM; in the assay with KM12 colon, 10.6 µM; with HCT-116 colon, 1.77 µM; in the assay with SF-539 CNS it was 3.54 µM. For the same compound, the TGI in the assay with SW-620 colon turned out to be 2.1 µM; in the assay with SF-295 CNS it was 24 µM; in the assay on OVCAR-3 ovarian it was 5.29 µM; in the assay with SK-OV-3 ovarian, 23.6 µM; with SK-MEL-2 melanoma, 2.74 µM; with UACC-62 melanoma, 3.1 µM. In addition, the TGI in the assay on A498 renal turned out to be 8.51 µM; with MALME-3M melanoma, 2.12 µM.
Turning to `CC(C)(C)N1C(C(=O)c2ccccc2)C1c1ccccc1` (stereo not drawn), the TGI in the assay with A549 NSCLC, in the assay on NCI-H460 lung, in the assay on U251 CNS, with NCI-H23 lung, in the assay on K-562 leukemia and in the assay with UACC-257 melanoma was above 100 µM throughout. Also, the TGI in the assay on LOX IMVI melanoma, in the assay with KM12 colon, in the assay on SF-539 CNS, in the assay on SW-620 colon, in the assay with OVCAR-3 ovarian and with SK-OV-3 ovarian was above 100 µM in each case. The compound also showed a TGI with UACC-62 melanoma above 100 µM.
With `O=C(CSc1nc2ccccc2s1)c1sc2sc3ccccc3[n+]2c1[O-]`, the TGI in the assay with SF-268 CNS, with A549 NSCLC, in the assay with OVCAR-5 ovarian, in the assay on NCI-H460 lung, in the assay on U251 CNS and with NCI-H23 lung was above 100 µM each time. For the same compound, the TGI with K-562 leukemia, with UACC-257 melanoma, in the assay on LOX IMVI melanoma, in the assay on KM12 colon, with HCT-116 colon and with SF-539 CNS was above 100 µM each time. In addition, the TGI with SW-620 colon, in the assay on SF-295 CNS, in the assay with OVCAR-3 ovarian, in the assay on SK-OV-3 ovarian, with SK-MEL-2 melanoma and in the assay with UACC-62 melanoma was above 100 µM each time. Moreover, the TGI in the assay with A498 renal and with MALME-3M melanoma was above 100 µM throughout.
As for `C#CCOc1c(C(=O)OCC)c(=O)n(C)c2ccccc12`, the TGI in the assay with SF-268 CNS, in the assay with NCI-H460 lung, with U251 CNS, with NCI-H23 lung, in the assay on K-562 leukemia and with LOX IMVI melanoma was above 100 µM in each case. In addition, the TGI with SF-539 CNS, in the assay on SW-620 colon, in the assay with SF-295 CNS, with OVCAR-3 ovarian, in the assay on SK-OV-3 ovarian and in the assay on SK-MEL-2 melanoma was above 100 µM each time. The TGI in the assay on UACC-62 melanoma, with A498 renal and in the assay with MALME-3M melanoma was above 100 µM in each case.
For the compound `CCOC(=O)C12CCC(=O)C=C1[C@@H](C)C(=O)CC2` (stereo partly drawn), the TGI in the assay with SF-268 CNS, in the assay on OVCAR-5 ovarian, in the assay with NCI-H460 lung, in the assay on U251 CNS, in the assay with NCI-H23 lung and in the assay with UACC-257 melanoma was above 100 µM throughout. Moreover, the TGI with LOX IMVI melanoma, with KM12 colon, in the assay on HCT-116 colon, in the assay with SW-620 colon, in the assay with SF-295 CNS and in the assay on OVCAR-3 ovarian was above 100 µM in each case. The TGI in the assay with SK-OV-3 ovarian, in the assay on SK-MEL-2 melanoma, with UACC-62 melanoma and in the assay with MALME-3M melanoma was above 100 µM in each case.
With `N#CCCCC[N+]12CN3CN(CN(C3)C1)C2`, the TGI in the assay with SF-268 CNS, with A549 NSCLC, in the assay with OVCAR-5 ovarian, with NCI-H460 lung, with U251 CNS and with NCI-H23 lung was above 100 µM each time. Also, the TGI was above 100 µM in the assay with K-562 leukemia; above 100 µM with UACC-257 melanoma; above 100 µM with LOX IMVI melanoma; above 100 µM with KM12 colon; above 100 µM in the assay with HCT-116 colon; 54 µM in the assay with SF-539 CNS. The TGI in the assay on SW-620 colon, in the assay on SF-295 CNS, in the assay on OVCAR-3 ovarian, in the assay with SK-OV-3 ovarian, in the assay with SK-MEL-2 melanoma and in the assay with UACC-62 melanoma was above 100 µM in each case. For the same compound, the TGI in the assay with A498 renal and in the assay on MALME-3M melanoma was above 100 µM throughout.
Consider `Nc1nc(N)c2c(n1)NC(=O)c1c(c3ccccc3n1Cc1ccc(Cl)cc1)C2`, for which the TGI in the assay on SF-268 CNS is above 100 µM; with A549 NSCLC, 62.6 µM; with OVCAR-5 ovarian it was above 100 µM; in the assay on NCI-H460 lung, 36.8 µM; in the assay on U251 CNS, above 100 µM; with NCI-H23 lung, above 100 µM. The TGI with K-562 leukemia was above 100 µM; in the assay on UACC-257 melanoma, above 100 µM; in the assay on LOX IMVI melanoma, 56.4 µM; with HCT-116 colon it was 66.9 µM; in the assay on SF-539 CNS, 44.8 µM; with SW-620 colon, above 100 µM. The TGI with SF-295 CNS is 84.7 µM; in the assay on OVCAR-3 ovarian, 56.5 µM; with SK-OV-3 ovarian it was 45.4 µM; in the assay with SK-MEL-2 melanoma, above 100 µM; in the assay with UACC-62 melanoma, above 100 µM; with A498 renal it was 30.8 µM. For the same compound, the TGI in the assay with MALME-3M melanoma is above 100 µM.
